# According to ChEMBL document CHEMBL1131785, “Design and synthesis of amidino-tyrosine derivatives as non-peptide fibrinogen receptor antagonists” (Bioorg Med Chem Lett, 1999):
# Species on record: Homo sapiens
# Assay: Inhibitory activity against adenosine diphosphate (ADP)-induced platelet aggregation
# Assay type: functional, organism-based
row,IC50 [nM],SMILES
1,250,Cc1ccc(C(=O)N[C@@H](Cc2ccc(OCC(=O)Nc3ccc(C(=N)N)cc3)cc2)C(=O)O)cc1
2,610,Cc1ccccc1OCC(=O)N[C@@H](Cc1ccc(OCC(=O)Nc2ccc(C(=N)N)cc2)cc1)C(=O)O
3,> 1000,N=C(N)c1ccc(OCCCOc2ccc(C[C@H](NC(=O)c3ccccc3)C(=O)O)cc2)cc1
4,270,N=C(N)c1ccc(NC(=O)COc2ccc(C[C@H](NC(=O)c3ccccc3)C(=O)O)cc2)cc1
5,740,N=C(N)c1ccc(OCCOc2ccc(C[C@H](NC(=O)c3ccccc3)C(=O)O)cc2)cc1
6,> 1000,N=C(N)c1ccc(OCCCCOc2ccc(C[C@H](NC(=O)c3ccccc3)C(=O)O)cc2)cc1
7,710,N=C(N)c1ccc(OCCOc2ccc(C[C@H](NC(=O)c3ccco3)C(=O)O)cc2)cc1
8,510,N=C(N)c1ccc(NC(=O)COc2ccc(C[C@H](NC(=O)c3ccc4ccccc4c3)C(=O)O)cc2)cc1
